The values below come from EP2450458B1, “Novel microorganisms producing a thermostable lipase and their use” (Universiti Putra Malaysia (UPM), priority 2010, dated 2012).

Series [1] has as its system purified recombinant ARM thermostable lipase. The experiment in a line: Lipase organic solvent-stability. The following applies: solvent 30% v/v, 30 min at 30°C, 150 rpm; assay at 65°C. In kind it is biochemical, Geobacillus sp. strain ARM. The method, then:
Aliquots of the enzyme were incubated with the solvents (30%, v/v) for 30 min at 30°C with shaking at 150 rpm. […] The stability was expressed as the remaining lipolytic activity relative to that of the control (without solvent). The relative activity was measured at 65°C as described before.

The conditions of series [2]: values in parenthesis used to select the solvents; cited from earlier work.
For series [3], the system named is purified recombinant ARM thermostable lipase. The experiment in a line: Effect of metal ions on lipase activity. Particulars: pre-incubation 30 min at 30°C, assay at 65°C. In kind it is biochemical, Geobacillus sp. strain ARM. The procedure: To determine the effects of metal ions on the lipase activity, the purified enzyme was pre-incubated for 30 min at 30°C with various metal ions. Two concentrations (1 and 5 mM) of each of the following ions were used: CO^2+, CU^2+, Mg^2+, Ni^2+, Mn^2+, Zn^2+ Fe^2+, Ca^2+, Sr^2+, K^+, Na^+, Rb^+ and Ag^+. All salts were dissolved in MOPS buffer (50 mM, pH 8.0) (Aslamkhan et al., 2002). The control contained no ion. The relative activity was measured at 65°C using olive oil (emulsified, 1:1 v/v, in 50 mM Tris-HCl buffer, pH 8.0) as substrate. Metal cations play different and important roles in influencing the structure and function of lipases (Gupta et al.., 2004a; Kim et al., 2005). The effect of different metal ions on the purified ARM lipase activity was studied (Figure 29). […] The Ca^2+-binding motif was not found in ARM lipase sequence.

For series [4] the test system is unchanged. The experiment in a line: Effect of inhibitors on lipase activity. The following applies: pre-incubation 30 min at 30°C, assay at 65°C. In kind it is biochemical, Geobacillus sp. strain ARM. The method, then:
The control contained no inhibitor. The relative activity was measured at 65°C using olive oil (emulsified, 1:1 v/v, in 50 mM Tris-HCl buffer, pH 8.0) as substrate.

Series [5] shares this test system. The experiment in a line: Effect of surfactants on lipase activity. The format is biochemical, Geobacillus sp. strain ARM. Particulars: pre-incubation 30 min at 30°C, assay at 65°C. The procedure: The effect of surfactants on the lipase activity was investigated by pre-incubating the purified enzyme for 30 min at 30°C in Tris-HCl buffer (50 mM, pH 8.0) containing 0.1 and 1% (v/v) of following surfactants (nonionic surfactants): Tween 20, Tween 40, Tween 80, Tween 85, Triton X-100, Triton B1958, Span 20. In the case of SDS (ionic surfactant) concentrations were 1 and 5 mM. The control contained no surfactant. The relative activity was measured at 65°C using olive oil (emulsified, 1:1 v/v, in 50 mM Tris-HCl buffer, pH 8.0) as substrate. The effects of various surfactants on the purified ARM lipase are depicted in Figure 30.

The test system is the same in series [6]. The experiment in a line: Effect of ionic liquids on lipase hydrolytic activity. In kind it is biochemical, Geobacillus sp. strain ARM. The following applies: 90% (v/v) ionic liquid, 0 min, without incubation; assay at 65°C. The method, then: (§1) Aliquots of the enzyme were suspended in 90% (v/v) of four different ionic liquids (ILs) properly. Then, the mixture of lipase and ILs was incubated for 0-90 min at 60°C with shaking at 150 rpm. The selected ILs were [Emim][BF4], [Emim][TfO], [Bmim][BF4] and […]. The thermostability was expressed as the remaining lipolytic activity relative to that of the control (without ILs) after incubation at high temperature. The residual activity was measured at 65°C as described before.

Series [7] shares this test system. The experiment in a line: Effect of ionic liquids on lipase thermostability at 60°C. The format is biochemical, Geobacillus sp. strain ARM. The following applies: 90% (v/v) ionic liquid, 0-90 min at 60°C, 150 rpm; assay at 65°C. The method, then: as §1

“And” between values parts separate entries of the source, which are not always exact repeats. Identical values can stand only once.

As to 1-butanol, the “effect on lipase activity/stability” value in series [1] is given as “dramatically inhibited”. Same read-out and setting: to 1-propanol belongs “dramatically inhibited”. Consider `CCCCCCCCCCO` [1-decanol], for which the “remaining lipolytic activity relative to the control (without solvent)” value in series [1] turned out to be 86%. As to `CCCCCCCCCCCCO` [1-dodecanol], the “remaining lipolytic activity relative to the control (without solvent)” value in series [1] is “more than 100%”. For the same compound, the log P (as a rule, a log measure of how a compound divides between an organic and an aqueous phase) in series [2] is 5. With `CCCCCCCCCCCCCCCC` [1-hexadecane], the “remaining lipolytic activity relative to the control (without solvent)” value in series [1] is on record as 78%. As to `CCCCCCCCO` [1-octanol], the “remaining lipolytic activity relative to the control (without solvent)” value in series [1] is reported as “more than 100%”. Further, the “log P” value in series [2] was 2.9. With `CCCCCCCCCCCO` [1-undecanol], the “remaining lipolytic activity relative to the control (without solvent)” value in series [1] was 74%. For the same compound, the “log P” value in series [2] is recorded as 4.6. Turning to `CC(O)C(C)O` (stereo not shown) [2,3-butanediol], in series [2], the lipophilicity (log P) is given as -0.92. For the compound `CC(C)O` [2-propanol], in series [1], the “effect on lipase activity/stability” value is “dramatically inhibited”.

For `[Ca+2]` [Ca^2+], the “effect on lipase activity” value in series [3] (1 and 5 mM ion) is given as “stimulated the lipase activity”.

For `C[S+](C)[O-]` [DMSO], the “remaining lipolytic activity relative to the control (without solvent)” value in series [1] is 62.5% and 62.4%. `O=C(O)CN(CCN(CC(=O)O)CC(=O)O)CC(=O)O` [EDTA, ethylene diamine tetra-acetic acid]: the “activation of the lipase” value in series [4] (1 mM) is “around 20%”; in series [4] (5 mM) it was “more than 60%”.

Consider `CCCCCCCCCCCCOS(=O)(=O)[O-].[Na+]` [SDS], for which the “effect on lipase activity” value in series [5] (1 and 5 mM (ionic surfactant)) is listed as “strongly inhibited”. `[Sr+2]` [Sr^2+]: the “effect on lipase activity” value in series [3] (1 mM ion) is given as “stimulated the lipase activity”.

In the case of `CCCCn1cc[n+](C)c1.F[B-](F)(F)F` [[Bmim][BF4]], the “effect on lipase activity” value in series [6] is on record as “decreased lipase activity”.

For the compound `CCCCn1cc[n+](C)c1.F[P-](F)(F)(F)(F)F` [[Bmim][PH6]], in series [6], the “lipase activity relative to the control (without ILs)” value was “up to 120%”. Turning to `CCn1cc[n+](C)c1.F[B-](F)(F)F` [[Emim][BF4]], the “effect on lipase activity” value in series [6] is listed as “no significant effect”. In series [7], the “effect on lipase thermostability” value is recorded as “significant effects on lipase thermostability enhancement”. For the compound `CCn1cc[n+](C)c1.O=S(=O)([O-])C(F)(F)F` [[Emim][TfO]], the “lipase activity relative to the control (without ILs)” value in series [6] is “up to 120%”. Further, the “effect on lipase thermostability” value in series [7] is “significant effects on lipase thermostability enhancement”. Turning to `CC(C)=O` [acetone], in series [1], the “effect on lipase activity/stability” value is recorded as “dramatically inhibited”. Moreover, in series [2], the “log P” value was -0.208. In the case of `CC#N` [acetonitrile], in series [1], the “effect on lipase activity/stability” value is “dramatically inhibited”. Moreover, in series [2], the “log P” value was -0.394. For the compound `c1ccccc1` [benzene], in series [1], the “remaining lipolytic activity relative to the control (without solvent)” value is given as “more than 100%”. As for `OCc1ccccc1` [bnzyl alcohol], the “effect on lipase activity/stability” value in series [1] was “dramatically inhibited”.

For the compound `CCc1ccccc1` [ethylbenzene], in series [1], the “remaining lipolytic activity relative to the control (without solvent)” value is recorded as 77%. Also, the “log P” value in series [2] is 3.3. As to `CCCCCCCCCCCCCCCCC` [heptadecane], the “remaining lipolytic activity relative to the control (without solvent)” value in series [1] was “more than 100%”. The “log P” value in series [2] is reported as 8.69. For the compound `CCCCCCC` [heptan], the “remaining lipolytic activity relative to the control (without solvent)” value in series [1] is “more than 100%”. The “log P” value in series [2] is on record as 4.4.

For `CC(C)CCO` [iso-amyl alcohol], the “effect on lipase activity/stability” value in series [1] is reported as “dramatically inhibited”. For the same compound, in series [2], the “log P” value is listed as 1.3. In the case of `CC(C)CO` [iso-butanol], the “effect on lipase activity/stability” value in series [1] is listed as “dramatically inhibited”. For the same compound, the “log P” value in series [2] was 0.79. As for `CC(C)CC(C)(C)C` [iso-octane], the “remaining lipolytic activity relative to the control (without solvent)” value in series [1] is “more than 100%”. Also, the “log P” value in series [2] was 4.5.

For the compound `CCCCCCCCCCCCCCC` [n-pentadecane], the “remaining lipolytic activity relative to the control (without solvent)” value in series [1] is “more than 100%”. Further, the “log P” value in series [2] is listed as 7.71.

With `CCCCCCCCCCCCCC` [n-tetradecane], in series [1], the “remaining lipolytic activity relative to the control (without solvent)” value is given as “more than 100%”. Further, in series [2], the “log P” value is given as 7. Take `Cc1ccccc1C` [o-xylene]: the “remaining lipolytic activity relative to the control (without solvent)” value in series [1] is “more than 100%”.

Regarding `Cc1ccccc1` [toluene], the “remaining lipolytic activity relative to the control (without solvent)” value in series [1] was “more than 100%”.

Take Span 20: in series [5] (0.1 and 1% (v/v) surfactant), the “effect on lipase activity” value is on record as “not affected”. As to Triton X-100, in series [5] (1% surfactant), the “increase in lipase activity” value came out at 20%. In the case of hexanes, the “remaining lipolytic activity relative to the control (without solvent)” value in series [1] is “more than 100%”. The “log P” value in series [2] is 3.6.
